Experimental data: paper PMC7928264 (Journal of pharmacy & pharmaceutical sciences : a …, 2014)
Where a name gives a salt, the structure may show the parent alone. Read-outs that look alike come from different tables or passages of the source.

What was measured:
OCTs = settings: for Inhibition of tacrine uptake vs untreated control: 30 min pre-incubation, 1 μM tacrine 5 min, SCHs day 1
OATPs = OATPs inhibition study with rifampicin on tacrine cellular accumulation; format: in vitro ADME, rat; settings: data not shown
[1] = tested on: sandwich-cultured primary rat hepatocytes (SCHs); settings: 5 min, 1 μM
[2] = tested on: sandwich-cultured primary rat hepatocytes (SCHs)
[3] = human, in vivo; cited from earlier work
[4] = tested on: sandwich-cultured primary rat hepatocytes (SCHs); settings: 1 μM
hepatic transaminase = settings: human, in vivo; cited from earlier work
P-gp = settings: 5 μM valspodar, 1 μM tacrine, 10 min, SCHs day 4

## CC[N+](CC)(CC)CC [TEA, tetraethylammonium chloride]
OCTs; inhibitor 300 μM
  Inhibition of tacrine uptake vs untreated control: ~ 18%

## CN/C(=N/CCSCc1nc[nH]c1C)NC#N [cimetidine]
OCTs; inhibitor 300 μM
  Inhibition of tacrine uptake vs untreated control: > 50%

## COCCCC/C(=N\OCCN)c1ccc(C(F)(F)F)cc1 [fluvoxamine, Fluvoxamine maleate]
OCTs; inhibitor 50 μM
  Inhibition of tacrine uptake vs untreated control: > 50%

## CO[C@H]1/C=C/O[C@@]2(C)Oc3c(C)c(O)c4c(O)c(c(/C=N/N5CCN(C)CC5)c(O)c4c3C2=O)NC(=O)/C(C)=C\C=C\[C@H](C)[C@H](O)[C@@H](C)[C@@H](O)[C@@H](C)[C@H](OC(C)=O)[C@@H]1C [rifampicin]
OATPs
  Effect on tacrine cellular accumulation: did not alter tacrine cellular accumulation

## Nc1c2c(nc3ccccc13)CCCC2 [tacrine, 9-amino-1,2,3,4-tetrahydroacridine]
[1]; pH 6.4
  Average uptake: 68±4 pmol/min/mg protein
  Decrease in uptake compared to neutral pH (7.4): approximately 3 fold
[1]; pH 7.4
  Average uptake: 405±16 pmol/min/mg protein
[1]; pH 8.4
  Average uptake: 816±62 pmol/min/mg protein
[1]; pH 8.6
  Increase in uptake compared to neutral pH (7.4): ~2 fold
[2]; 1 μM tacrine, SCHs day 1
  Time at which uptake reaches a plateau: 10 min
[2]; SCHs, day 1, saturable uptake (37°C minus 4°C), tacrine 0.1–500 μM
  Uptake Vmax: 908±72 pmol/min/mg protein
[3]
  Oral bioavailability: 17–24%
[4]
  Time of maximum biliary excretion: 10 min
[4]; 10 min
  BEI%: 22.9±1.9%
Hepatic transaminase
  Patients with significantly elevated hepatic transaminase concentrations: 25%

## C/C=C/C[C@@H](C)C(=O)[C@H]1C(=O)N[C@@H](C(C)C)C(=O)N(C)CC(=O)N(C)[C@@H](CC(C)C)C(=O)N[C@@H](C(C)C)C(=O)N(C)[C@@H](CC(C)C)C(=O)N[C@@H](C)C(=O)N[C@H](C)C(=O)N(C)[C@@H](CC(C)C)C(=O)N(C)[C@@H](CC(C)C)C(=O)N(C)[C@@H](C(C)C)C(=O)N1C [valspodar]
P-gp
  Reduction of tacrine BEI%: approximately 60%

## COc1ccc(CCN(C)CCCC(C#N)(c2ccc(OC)c(OC)c2)C(C)C)cc1OC (stereo not shown) [verapamil, verapamil hydrochloride]
OCTs; inhibitor 50 μM
  Inhibition of tacrine uptake vs untreated control: > 50%
OCTs; verapamil tested at 10, 50 and 100 μM, concentration-dependent, P<0.001
  Concentration giving maximal inhibition of tacrine uptake: 100 µM
OCTs; verapamil, concentration not given, SCHs
  Reduction in tacrine uptake: 3 fold
